Tests used:
[1] = biological target: hSTING-CTD (Homo sapiens (Human), UniProt Q86WV6); test: Human STING protein FP competition concentration response assay; type: binding
Protocol: A validated STING ligand, such as c-di-GMP, which is labeled with a read-out signal (e.g., a fluorescence signal such as fluorescein), is mixed with STING-CTD (e.g., mouse STING-CTD or human STING-CTD) with or without the presence of a compound of the present application. Changes in the read-out signal are measured (e.g., by fluorescence anisotropy) to determine the binding of the compound to STING-CTD.
Fluorescein labeled c-di-GMP, a validated STING ligand, was mixed with recombinant hSTING-CTD in a homogenous assay format with or without the presence of a compound of the present application (titrated) in PBS in black 384-well plates (10 μL per well). The fluorescence anisotropy was determined on a PerkinElmer EnVisions multi-mode plate reader. The plate can be read immediately after mixing the reagents or after a few hours without change of signals.
• 1) hSTING (Supplier: HDB) • 2) 2′-Fluo-AHC-c-di GMP (BIOLOG #F009) • 3) 2′3′-cGAMP (BIOLOG #C161) • 4) DMXAA (InvivoGen #tlrl-dmx) • 5) DMSO (Sigma, #D5879-100 mL) • 6) 10×PBS(HDB #MCP-020) • 7) Assay plate, 384-well black plate, solid black bottom (Greiner #784076) • 8) Compound dilution intermediate plate, 384 LDV plate (Labcyte #LP-0200) • 9) Liquid handler, ECHO550 (Labcyte) • 10) Liquid handler, Bravo (Aglient) • 11) Reader, Envision (PerkinElmer) • 12) Centrifuge (Eppendorf) • 13) Multichannel Pipette (Raining) • 14) 10 ml Reservoir (Corning) • 15) 15 ml centrifuge tube (Corning) • 16) Adhesive Plate seals (BioRad) Compound Preparation • a) Containers of each compound were centrifuged at 1000 rpm for 5 min. • b) Compounds were dissolved in DMSO at 30 mM. • c) Compounds were sufficiently vortexed, and centrifuged at 1000 rpm for 1 min. • d) 16 uL of the compound solution was transferred into a LDV Compound Plate. • e) 2-fold serial dilutions of the compound solution were made with DMSO, and 14 concentrations were made in the 384-well LDV Compound Plate. • f) The LDV plate was spun at 1000 rpm for 60 sec and sealed with foil (stored at −20° C. if not used immediately). • g) 335 nL of each compound from the LDV Compound Plate was transferred to Assay Plate (ECHO550). Probe Preparation • a) 200 uM probe stock (2′-Fluo-AHC-c-diGMP) was diluted by ddH2O to 6 uM working concentration. • b) 10-12 uL 6 uM working solution of probe was transferred into the LDV plate. • c) 50 nL per well 6 uM working solution of probe was transferred from the LDV plate to each well of the empty Assay Plate (Greiner 784076) by ECHO550 Buffer mode. • d) Probe final concentration was 30 nM when assay system was 10 uL. • e) The Assay Plate was spun at 1000 rpm for 1 min. Compound Addition • a) After the LDV Compound Plate was prepared, 335 nL compound (ECHO550 DMSO mode) was transferred from the LDV Compound Plate into the Assay Plate (Greiner 784076) containing 50 nL probe in each well according to the Assay Plate layout. • b) DMSO final concentration was 3.35% when assay system was 10 uL. • c) The Assay Plate was spun at 1000 rpm for 1 min. Protein Addition • a) Aliquot of hSTING protein was thawed on ice, briefly to generate uniform solution. • b) 55 uM stock protein was diluted in 1×PBS assay buffer to generate 10 uM final solutions. • c) For test compound and ZPE wells, 10 μL per well of 10 uM protein solutions was added into the Assay Plate containing both the probe and test compounds or DMSO using multichannel pipette. • d) For HPE wells, 10 μL/well of 1×PBS assay buffer instead of protein was added into the Assay Plate containing both the probe and DMSO using multichannel pipette. • e) The Assay Plate was spun at 1000 rpm for Imin. • f) The Assay Plate was incubated at r.t. for 10-20 min.
The EnVision plate reader was used to record the FA value of each well immediately after mixing the reagents or after a few hours without change of signals.
The raw data and calculated data (Fluorescence anisotropy (FA)) was exported from the EnVision reader. […]

[2] = biological target: STING protein (Homo sapiens (Human), UniProt Q86WV6, H232R); test: Cell based reporter assay of IRF activation (IRF-luciferase), THP1-dual-KI R232; settings: read-out: THP1-dual-KI R232_IRF(Luciferase)_Activity Maximum measured (%)
Sequence of STING protein (Q86WV6 whole entry H232R, the tested form may be a part): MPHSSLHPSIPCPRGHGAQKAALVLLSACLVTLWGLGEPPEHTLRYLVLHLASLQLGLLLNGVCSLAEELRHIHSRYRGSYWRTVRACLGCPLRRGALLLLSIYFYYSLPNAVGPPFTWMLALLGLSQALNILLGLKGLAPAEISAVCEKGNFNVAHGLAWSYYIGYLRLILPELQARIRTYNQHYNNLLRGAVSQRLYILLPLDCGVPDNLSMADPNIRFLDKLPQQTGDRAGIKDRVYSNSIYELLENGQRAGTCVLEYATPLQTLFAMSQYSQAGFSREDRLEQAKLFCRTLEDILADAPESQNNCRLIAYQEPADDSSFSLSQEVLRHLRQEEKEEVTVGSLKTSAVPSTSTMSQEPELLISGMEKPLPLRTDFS

[3] = biological target: hSTING-R232 (Homo sapiens (Human), UniProt Q86WV6, H232R); test: STING differential scanning fluorimetry (DSF) assay, WT human STING; settings: WT (R232) human STING aa140-379, net shift in melting temperature
Sequence of hSTING-R232 (Q86WV6 140-379 H232R): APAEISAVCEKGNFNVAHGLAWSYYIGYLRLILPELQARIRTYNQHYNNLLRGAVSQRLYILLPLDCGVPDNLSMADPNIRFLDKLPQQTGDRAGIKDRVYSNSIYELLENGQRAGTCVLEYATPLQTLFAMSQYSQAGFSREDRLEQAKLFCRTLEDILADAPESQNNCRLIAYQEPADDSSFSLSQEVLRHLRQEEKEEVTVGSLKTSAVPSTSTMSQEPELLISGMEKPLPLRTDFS

[4] = biological target: mSTING (Mus musculus, UniProt Q3TBT3); test: Radiometric filtration binding competition assay, mSTING
[5] = biological target: mSTING-R232 (Mus musculus, UniProt Q3TBT3); test: STING differential scanning fluorimetry (DSF) assay, mouse STING; settings: net shift in melting temperature
[6] = biological target: hSTING-WT (Homo sapiens (Human), UniProt Q86WV6, H232R); test: Radiometric filtration binding competition assay, hSTING-WT
Sequence of hSTING-WT (Q86WV6 140-379 H232R): as above

Sequence of hSTING-CTD (Q86WV6 135-379): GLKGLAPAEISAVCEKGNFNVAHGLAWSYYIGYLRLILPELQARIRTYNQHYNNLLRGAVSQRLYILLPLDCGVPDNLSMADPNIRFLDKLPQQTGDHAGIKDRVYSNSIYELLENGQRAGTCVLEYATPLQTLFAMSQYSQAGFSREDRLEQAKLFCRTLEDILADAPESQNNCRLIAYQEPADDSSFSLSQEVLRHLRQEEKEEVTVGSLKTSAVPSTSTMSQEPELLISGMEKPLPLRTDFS

| IC50 [1] [µM] | Emax [2] [%] | WT_DSF_hSWAT Tm Shift (° C.) [3] | IC50 [4] [µM] | MOUSE DSF_6xHIS-SUMO Tm Shift (° C.) [5] | IC50 [6] [µM] | Structure (SMILES) |
| --- | --- | --- | --- | --- | --- | --- |
| 500 to 1000 | – | – | – | – | – | O=C(O)Cn1c2cccc(F)c2c(=O)c2ccc(Cl)c(Cl)c21 [Compound 31] |
| < 100 | – | – | – | – | – | N#Cc1ccc2c(=O)c3ccccc3n(CC(=O)O)c2c1Cl [Compound 107] |
| – | > 50 | D (“D” > 7° C.) | < 20 | D (“D” > 15° C.) | < 20 | COc1c(Cl)ccc2c(=O)c3ccc(NC4CCCC4)cc3n(CC(=O)O)c12 [Compound 293] |
| – | > 50 | D (“D” > 7° C.) | < 20 | C (“C” = 5-15° C.) | 20 to 100 | C=CCOc1c(Cl)ccc2c(=O)c3ccc(C)cc3n(CC(=O)O)c12 [Compound 311] |
| – | > 50 | D (“D” > 7° C.) | < 20 | D (“D” > 15° C.) | < 20 | CN(C)c1c(Cl)ccc2c(=O)c3ccc(Nc4ccccc4)cc3n(CC(=O)O)c12 [Compound 332] |
| – | < 5 | D (“D” > 7° C.) | < 20 | D (“D” > 15° C.) | 20 to 100 | CS(=O)(=O)Nc1cccc(Nc2ccc3c(=O)c4ccc(Cl)c(Cl)c4n(CC(=O)O)c3c2)c1 [Compound 257] |
| – | > 50 | D (“D” > 7° C.) | 20 to 100 | C (“C” = 5-15° C.) | 20 to 100 | CSc1c(Cl)ccc2c(=O)c3ccc(Br)cc3n(CC(=O)O)c12 [Compound 309] |
| – | > 50 | D (“D” > 7° C.) | < 20 | D (“D” > 15° C.) | < 20 | COc1c(Cl)ccc2c(=O)c3ccc(Nc4cccc5ccccc45)cc3n(CC(=O)O)c12 [Compound 297] |
| – | 25 to 50 | D (“D” > 7° C.) | < 20 | D (“D” > 15° C.) | 20 to 100 | COc1c(Cl)ccc2c(=O)c3ccc(Nc4ccc(Cl)cc4)cc3n(CC(=O)O)c12 [Compound 251] |
| – | > 50 | D (“D” > 7° C.) | < 20 | D (“D” > 15° C.) | < 20 | Cc1ccc2c(=O)c3ccc(Cl)c(N(C)C)c3n(CC(=O)O)c2c1 [Compound 308] |
| – | > 50 | D (“D” > 7° C.) | < 20 | D (“D” > 15° C.) | < 20 | COc1c(Cl)ccc2c(=O)c3ccc(-c4cccc(O)c4)cc3n(CC(=O)O)c12 [Compound 270] |
| – | > 50 | D (“D” > 7° C.) | 20 to 100 | D (“D” > 15° C.) | < 20 | CC(C)Oc1c(Cl)ccc2c(=O)c3ccc(C(C)(C)C)cc3n(CC(=O)O)c12 [Compound 225] |
| – | > 50 | D (“D” > 7° C.) | 20 to 100 | C (“C” = 5-15° C.) | 20 to 100 | CCc1ccc2c(=O)c3ccc(Cl)c(OC)c3n(CC(=O)O)c2c1 [Compound 294] |
| – | > 50 | D (“D” > 7° C.) | < 20 | D (“D” > 15° C.) | < 20 | COc1c(Cl)ccc2c(=O)c3ccc(Nc4ccc(F)cc4)cc3n(CC(=O)O)c12 [Compound 250] |
| – | > 50 | D (“D” > 7° C.) | < 20 | C (“C” = 5-15° C.) | < 20 | CC(C)c1ccc2c(=O)c3ccc(Cl)c(-c4ccccc4)c3n(CC(=O)O)c2c1 [Compound 289] |
| – | > 50 | C (“C” = 2-7° C,) | 100 to 300 | C (“C” = 5-15° C.) | > 300 | COc1c(Cl)cc(O)c2c(=O)c3ccccc3n(CC(=O)O)c12 [Compound 314] |
| – | < 5 | B (“B” = 0-2° C.) | > 300 | B (“B” = 0-5° C.) | > 300 | CC(=O)COc1c(Cl)ccc2c(=O)c3ccccc3n(CC(=O)O)c12 [Compound 312] |
| – | < 5 | B (“B” = 0-2° C.) | > 300 | C (“C” = 5-15° C.) | > 300 | O=C(O)Cn1c2ccccc2c(=O)c2ccc(Cl)c(OCCO)c21 [Compound 328] |
| – | 5 to 25 | A (“A” < 0° C.) | > 300 | A (“A” < 0° C.) | 100 to 300 | CN(Cc1ccccc1)c1c(Cl)ccc2c(=O)c3ccccc3n(CC(=O)O)c12 [Compound 310] |
| – | 5 to 25 | C (“C” = 2-7° C,) | 100 to 300 | C (“C” = 5-15° C.) | > 300 | O=C(O)Cn1c2ccccc2c(=O)c2ccc(Br)c(Br)c21 [Compound 108] |
| – | < 5 | C (“C” = 2-7° C,) | > 300 | C (“C” = 5-15° C.) | > 300 | CC(C)c1ccc2c(=O)c3ccc(Cl)c(OC[C@@H](C)O)c3n(CC(=O)O)c2c1 [Compound 327] |
| – | > 50 | D (“D” > 7° C.) | < 20 | D (“D” > 15° C.) | < 20 | COc1c(Cl)ccc2c(=O)c3ccc(-c4ccc(N)cc4)cc3n(CC(=O)O)c12 [Compound 274] |
| – | > 50 | D (“D” > 7° C.) | < 20 | D (“D” > 15° C.) | < 20 | CCOc1c(Cl)ccc2c(=O)c3ccc(CC)cc3n(CC(=O)O)c12 [Compound 306] |
| – | < 5 | D (“D” > 7° C.) | < 20 | D (“D” > 15° C.) | < 20 | CSc1c(Cl)ccc2c(=O)c3ccc(Nc4cnccn4)cc3n(CC(=O)O)c12 [Compound 291] |
| – | < 5 | D (“D” > 7° C.) | < 20 | D (“D” > 15° C.) | 20 to 100 | COc1c(Cl)ccc2c(=O)c3ccc(Nc4cnccn4)cc3n(CC(=O)O)c12 [Compound 263] |

From patent US11414387B2, “Oxoacridinyl acetic acid derivatives and methods of use” (Stingthera, Inc., priority 2017, dated 2022)
